In US8445207B2, “Genes based on thalidomide, valproic acid and methotrexate treatment for screening of drug inducing teratogenicity and screening method using thereof” (priority 2009, dated 2013):

Test system: JEG-3 (human placental choriocarcinoma cell line)
Assay: Real-time RT-PCR quantification of gene expression in drug-treated JEG-3
Format: cell-based
Conditions: for Real time PCR (Relative ratio), KIAA0310: GenBank AB002308; for Real time PCR (Relative ratio), ATP10B: GenBank AB018258; for Real time PCR (Relative ratio), TTF2: GenBank AB209845; for Real time PCR (Relative ratio), TncRNA: GenBank AF001893; for Real time PCR (Relative ratio), C4orf19: GenBank AK001879; for Real time PCR (Relative ratio), CYP19A1: GenBank AK023571; for Real time PCR (Relative ratio), SLC40A1: GenBank AK023574; for Real time PCR (Relative ratio), ABTB2: GenBank AK095632; for Real time PCR (Relative ratio), TUBB3: GenBank AK122757; for Real time PCR (Relative ratio), MGC27016: GenBank AK125877; for Real time PCR (Relative ratio), GLCCI1: GenBank AK126731; for Real time PCR (Relative ratio), TFCP2L4: GenBank BC036890; for Real time PCR (Relative ratio), RGS2: GenBank BC042755; for Real time PCR (Relative ratio), SIAT7A: GenBank BC063830; for Real time PCR (Relative ratio), B7-H4: GenBank BX648021; for Real time PCR (Relative ratio), COBLL1: GenBank BX649112; for Real time PCR (Relative ratio), CGA: GenBank NM_000735; for Real time PCR (Relative ratio), PARP1: GenBank NM_001618; for Real time PCR (Relative ratio), SERPINB9: GenBank NM_004155; for Real time PCR (Relative ratio), ST8SIA4: GenBank NM_005668; for Real time PCR (Relative ratio), ABL1: GenBank NM_007313; for Real time PCR (Relative ratio), GRLF1: GenBank NM_024342; for Real time PCR (Relative ratio), LGP1: GenBank NM_032484; for Real time PCR (Relative ratio), NCOA3: GenBank NM_181659; for Real time PCR (Relative ratio), SR140: GenBank XM_031553; for Real time PCR (Relative ratio), SLC7A8: GenBank Y18483
Method: My IQ Real-Time PCR (Bio-Rad, USA) was performed to quantify the expressions of those genes.
Particularly, cDNA was synthesized using oligo dT primer and Superscript kit (Omniscipt™ kit, Qiagen, Co., USA) by reverse transcription. 0.2 μl of the cDNA, 3.8 μl of water, 0.5 μg of a sense primer, 0.5 μg of an antisense primer, and […] of SYBR Green I supermix (Bio-Rad, USA) were mixed, which was placed in a PCR tube, followed by real-time RT-PCR in My IQ real-time PCR machine as follows: Step 1: 95°, 3 minutes; Step 2 (45 cycles): Step 2-1: 95°, 10 seconds; Step 2-2: 55-65° 45 seconds; Step 3: 95°, 1 minute; Step 4: 55°, 1 minute; Step 5 (80 cycles): 55°, 10 seconds. SYBR green I (Bio-Rad, USA) staining was performed to quantify the PCR product. SYBR I staining is the staining method using double stranded DNA binding. So, the more double stranded DNA is generated during PCR, the stronger the fluorescence intensity becomes. First, target gene and endogenous control (GAPDH) primers were added to SYBR green master mix, followed by PCR. Then, primer optimization was performed to determine a proper concentration. Synthesized cDNA and each primer were mixed (Table 4), to which SYBR master mix was added, followed by PCR.

Row | Structure (SMILES) | Real time PCR (Relative ratio), KIAA0310 | Real time PCR (Relative ratio), ATP10B | Real time PCR (Relative ratio), TTF2 | Real time PCR (Relative ratio), TncRNA | Real time PCR (Relative ratio), C4orf19 | Real time PCR (Relative ratio), CYP19A1 | Real time PCR (Relative ratio), SLC40A1 | Real time PCR (Relative ratio), ABTB2 | Real time PCR (Relative ratio), TUBB3 | Real time PCR (Relative ratio), MGC27016 | Real time PCR (Relative ratio), GLCCI1 | Real time PCR (Relative ratio), TFCP2L4 | Real time PCR (Relative ratio), RGS2 | Real time PCR (Relative ratio), SIAT7A | Real time PCR (Relative ratio), B7-H4 | Real time PCR (Relative ratio), COBLL1 | Real time PCR (Relative ratio), CGA | Real time PCR (Relative ratio), PARP1 | Real time PCR (Relative ratio), SERPINB9 | Real time PCR (Relative ratio), ST8SIA4 | further results
1 | CN(Cc1cnc2nc(N)nc(N)c2n1)c1ccc(C(=O)N[C@@H](CCC(=O)O)C(=O)O)cc1 [MTX, methotrexate] | 3.9217 | 2.6467 | 1.9659 | 2.2297 | 36.2463 | 1.7007 | 6.0098 | 0.1356 | 4.7892 | 2.3343 | 2.5941 | 0.7146 | 5.6716 | 8.3865 | 0.4198 | 1.4978 | 0.0829 | 0.2381 | 1.5208 | 0.955 | Real time PCR (Relative ratio), ABL1: 0.5159; Real time PCR (Relative ratio), GRLF1: 0.7048; Real time PCR (Relative ratio), LGP1: 0.6468; Real time PCR (Relative ratio), NCOA3: 2.4457; Real time PCR (Relative ratio), SR140: 0.1357; Real time PCR (Relative ratio), SLC7A8: 2.8779
2 | CCCC(CCC)C(=O)O [VPA, valproic acid] | 5.7397 | 2.7083 | 1.6637 | 1.8204 | 2.9592 | 2.15 | 1.9425 | 4.0469 | 1.9015 | 2.3155 | 1.6023 | 2.292 | 2.8779 | 4.5249 | 0.0755 | 12.2271 | 2.6497 | 0.7443 | 7.1977 | 3.7161 | Real time PCR (Relative ratio), ABL1: 0.8681; Real time PCR (Relative ratio), GRLF1: 0.8281; Real time PCR (Relative ratio), LGP1: 0.4982; Real time PCR (Relative ratio), NCOA3: 2.1913; Real time PCR (Relative ratio), SR140: 0.3565; Real time PCR (Relative ratio), SLC7A8: 6.3157
